Experimental data reported in patent publication US20250129328A1, “AN ISOLATED S. SALIVARIUS STRAIN AND ITS USE AS AN ANTIMICROBIAL PRODUCING PROBIOTIC” (priority 2021, published 2025).
Ends that are not written are not given here.

Columns and labels:
F. nucleatum DSM15643 = test: Well diffusion assay (WDA) of purified nisin peptides; format: cell-based, Fusobacterium nucleatum; set-up: dose or concentration left out as unconfirmed
L. bulgaricus DPC5383 = test: Well diffusion assay (WDA) of purified nisin peptides and CFS; format: cell-based, Lactobacillus delbrueckii ssp. bulgaricus; set-up: dose or concentration left out as unconfirmed; details: semi-pure nisin G and pure nisin A
Description: The culture was centrifuged at 7,871 g for 20 minutes and cells separated from the supernatant. The cell pellet was resuspended in 300 ml of 70% 2 propanol 0.1% TFA (IPA) and stirred at room temperature for 3-4 hours. The resulting suspension was centrifuged again, and the supernatant retained for purification of the antimicrobial. […] The IPA was removed by rotary evaporation and the sample applied to a 12 ml, 2 g Strata-E C18 SPE column pre-equilibrated (Phenomenex, Cheshire, UK) with methanol and water. The column was washed with 24 ml 30% ethanol and then 24 ml 70% 2-propanol 0.1% TFA. […] The IPA was removed from the C18 SPE IPA eluent by rotary evaporation (Buchi Labortechnik AG; Flawil, Switzerland) and the resulting sample applied to a semi prep Jupiter Proteo (10×250 mm, […], 90 Å) Reversed Phase HPLC column running a 30-50% acetonitrile 0.1% TFA gradient at 2.5 mL/min where buffer A was 0.1% TFA and buffer B was 100% acetonitrile 0.1% TFA. […] Bioactive fractions were pooled and lyophilized using a Genevac lyophiliser (Suffolk, UK).

| Substance | Zone of inhibition (area of zone of inhibition minus area of well) (F. nucleatum DSM15643) | Antimicrobial activity, comparison of size of zones of inhibition (in words) (L. bulgaricus DPC5383) |
| --- | --- | --- |
| nisin A (ITSISLCTPGCKTGALMGCNMKTATCHCSIHVSK; also: lantibiotic, modified residues and rings not given here; UniProt P13068 24-57, looked up) [prototypical broad spectrum lantibiotic, purified from nisinA®P (Handary) by reversed phase HPLC, reference compound] | 395.8 mm^2 |  |
| nisin G | 37.7 mm^2 | less than nisin A |
